Test results as given in patent US4448962A, “Substituted quinoline carboxylic acid derivatives” (Kyorin Seiyaku Kabushiki Kaisha, priority 1978, dated 1984).
In brackets after ≈: the same amount, converted by molar mass. Where two headings read alike, the source gives them in different places.

Legend:
Assay in all cases: Antibacterial spectrum (Minimum Inhibitory Concentration)
Type in all cases: cell-based
[1] = system: Bacillus subtilis PCI 219
Excerpt: (§1) The antibacterial tests were done according to the method authorized by the Chemotherapeutic Society of Japan.

E. coli ATCC 10536 = conditions: Escherichia coli
Excerpt: as §1

[2] = system: Escherichia coli NIHJ JC-2
Excerpt: as §1

[3] = system: Klebsiella pneumoniae IFO 3512
Excerpt: as §1

Pr. vulgaris XK Denken = conditions: Proteus vulgaris, read-out: Minimum Inhibitory Concentration
Excerpt: as §1

[4] = system: Proteus vulgaris IFO 3167
Excerpt: as §1

Ps. aeruginosa IFO 12689 = conditions: Pseudomonas aeruginosa
Excerpt: as §1

Ps. aeruginosa IID 1130 = conditions: Pseudomonas aeruginosa
Excerpt: as §1

Ps. aeruginosa IID 1210 = conditions: Pseudomonas aeruginosa
Excerpt: as §1

[5] = system: Pseudomonas aeruginosa V-1
Excerpt: as §1

[6] = system: Salmonella enteritidies IID 604
Excerpt: as §1

Ser. marcescens IID 619 = conditions: Serratia marcescens, IID619; Ser. marcescens IID 619, Gram -; read-out: Minimum Inhibitory Concentration
Excerpt: as §1

Ser. marcescens IID 620 = conditions: Serratia marcescens, IID620; Ser. marcescens IID 620, Gram -; read-out: Minimum Inhibitory Concentration
Excerpt: as §1

[7] = system: Serratia marcescens IID 618; conditions: IID618; Serratia marcescens IID 618, Gram -; read-out: Minimum Inhibitory Concentration
Excerpt: as §1

Sta. aureus ATCC 14775 = conditions: Staphylococcus aureus
Excerpt: as §1

[8] = system: Staphylococcus aureus 209P; conditions: read-out: Minimum Inhibitory Concentration
Excerpt: as §1

Shigella sonnei IID 969 = conditions: IID969; Shigella sonnei IID 969, Gram -
Excerpt: as §1

[9] = PCI219, Bacillus subtilis PCI 219, Gram +, read-out: Minimum Inhibitory Concentration
[10] = ATCC10536, E. coli ATCC 10536, Gram -, read-out: Minimum Inhibitory Concentration
[11] = NIHJJC2, Escherichia coli NIHJ JC-2, Gram -, read-out: Minimum Inhibitory Concentration
[12] = IFO3512, Klebsiella pneumoniae IFO 3512, Gram -, read-out: Minimum Inhibitory Concentration
[13] = IFO3167, Proteus vulgaris IFO 3167, Gram -, read-out: Minimum Inhibitory Concentration
[14] = IFO12689, read-out: Minimum Inhibitory Concentration
[15] = IID1130, Ps. aeruginosa IID 1130, Gram -, read-out: Minimum Inhibitory Concentration
[16] = IID1210, Ps. aeruginosa IID 1210, Gram -, read-out: Minimum Inhibitory Concentration
[17] = V1, Pseudomonas aeruginosa V-1, Gram -, read-out: Minimum Inhibitory Concentration
[18] = ATCC14775, Sta. aureus ATCC 14775, Gram +, read-out: Minimum Inhibitory Concentration
[19] = Staphylococcus aureus 209P, Gram +
[20] = Bacillus subtilis, PCI219, read-out: Minimum Inhibitory Concentration
[21] = ATCC10536, read-out: Minimum Inhibitory Concentration
[22] = Escherichia coli, NIHJJC2, read-out: Minimum Inhibitory Concentration
[23] = Klebsiella pneumoniae, IFO3512, read-out: Minimum Inhibitory Concentration
[24] = Proteus vulgaris, IFO3167, read-out: Minimum Inhibitory Concentration
[25] = ATCC14775, read-out: Minimum Inhibitory Concentration
[26] = IFO12689, Ps. aeruginosa IFO 12689, Gram -, read-out: Minimum Inhibitory Concentration
[27] = IID604, Salmonella enteritidies IID 604, Gram -, read-out: Minimum Inhibitory Concentration

CCn1cc(C(=O)O)c(=O)c2cc(F)c(N3CCNCC3)nc21.Cl [Example 1, 1-ethyl-1,4-dihydro-6-fluoro-7-(1-piperazinyl)-4-oxo-1,8-naphthyridine-3-carboxylic acid hydrochloride]
MIC [1, 9]: 0.39 µg/mL
MIC (E. coli ATCC 10536; [10]): 0.39 µg/mL
MIC [2, 11]: 0.2 µg/mL
MIC [3, 12]: 0.2 µg/mL
MIC (Pr. vulgaris XK Denken; Pr. vulgaris XK Denken, Gram -): 0.39 µg/mL
MIC [4, 13]: 0.2 µg/mL
MIC (Ps. aeruginosa IFO 12689; [14]): 6.25 µg/mL
MIC (Ps. aeruginosa IID 1130; [15]): 1.56 µg/mL
MIC (Ps. aeruginosa IID 1210; [16]): 6.25 µg/mL
MIC [5, 17]: 3.13 µg/mL
MIC ([6]; Salmonella, IID604, read-out: Minimum Inhibitory Concentration): 0.39 µg/mL
MIC (Ser. marcescens IID 619): 0.78 µg/mL
MIC (Ser. marcescens IID 620): 0.39 µg/mL
MIC [7]: 0.39 µg/mL
MIC (Sta. aureus ATCC 14775; [18]): 6.25 µg/mL
MIC [8, 19]: 0.78 µg/mL

C=Cn1cc(C(=O)O)c(=O)c2cc(F)c(N3CCNCC3)cc21.Cl [Example 3, 1-vinyl-6-fluoro-7-(1-piperazinyl)-4-oxo-1,4-dihydro-quinoline-3-carboxylic acid hydrochloride]
MIC [1, 20]: 0.39 µg/mL
MIC (E. coli ATCC 10536; [21]): 0.1 µg/mL
MIC [2, 22]: 0.1 µg/mL
MIC [3, 23]: 0.1 µg/mL
MIC (Pr. vulgaris XK Denken): 0.39 µg/mL
MIC [4, 24]: 0.2 µg/mL
MIC (Ps. aeruginosa IFO 12689; [14]): 1.56 µg/mL
MIC (Ps. aeruginosa IID 1130; IID1130, read-out: Minimum Inhibitory Concentration): 1.56 µg/mL
MIC (Ps. aeruginosa IID 1210; IID1210, read-out: Minimum Inhibitory Concentration): 1.56 µg/mL
MIC ([5]; Pseudomonas aeruginosa, V1, read-out: Minimum Inhibitory Concentration): 0.39 µg/mL
MIC (Sta. aureus ATCC 14775; [25]): 6.25 µg/mL
MIC ([8]; Staphylococcus aureus, 209P): 3.13 µg/mL

C=Cn1cc(C(=O)O)c(=O)c2cc(F)c(N3CCN(C)CC3)cc21.Cl [Example 4, 1-vinyl-6-fluoro-7-(4-methyl-1-piperazinyl)-4-oxo-1,4-dihydroquinoline-3-carboxylic acid hydrochloride]
MIC [1, 9]: 0.39 µg/mL
MIC (E. coli ATCC 10536; [21]): 0.2 µg/mL
MIC [2, 11]: < 0.1 µg/mL
MIC [3, 12]: < 0.1 µg/mL
MIC (Pr. vulgaris XK Denken): 0.2 µg/mL
MIC [4, 24]: 0.2 µg/mL
MIC (Ps. aeruginosa IFO 12689; [26]): 3.13 µg/mL
MIC (Ps. aeruginosa IID 1130; [15]): 6.25 µg/mL
MIC (Ps. aeruginosa IID 1210; [16]): 3.13 µg/mL
MIC [5, 17]: 3.13 µg/mL
MIC [6, 27]: 0.78 µg/mL
MIC (Ser. marcescens IID 619): 0.78 µg/mL
MIC (Ser. marcescens IID 620): 0.39 µg/mL
MIC [7]: 0.39 µg/mL
MIC (Shigella sonnei IID 969): 0.2 µg/mL
MIC (Sta. aureus ATCC 14775; [18]): 3.13 µg/mL
MIC [8, 19]: 1.56 µg/mL

CCn1cc(C(=O)O)c(=O)c2cc(F)c(N3CCN(Cc4ccc(N)cc4)CC3)cc21.Cl [Example 7, 1-ethyl-7-[(4-p-aminobenzyl)-1-piperazinyl]-1,4-dihydro-6-fluoro-4-oxo-quinoline-3-carboxylic acid hydrochloride]
MIC [1, 20]: 0.2 µg/mL
MIC (E. coli ATCC 10536; [21]): 0.39 µg/mL
MIC [3, 23]: 0.1 µg/mL
MIC (Pr. vulgaris XK Denken; Pr. vulgaris XK Denken, Gram -): 0.78 µg/mL
MIC [4, 13]: 0.78 µg/mL
MIC (Ps. aeruginosa IFO 12689; [26]): 25 µg/mL
MIC (Ps. aeruginosa IID 1130; [15]): 25 µg/mL
MIC (Ps. aeruginosa IID 1210; [16]): 25 µg/mL
MIC [5, 17]: 12.5 µg/mL
MIC [6, 27]: 3.13 µg/mL
MIC (Ser. marcescens IID 619): 3.13 µg/mL
MIC [7]: 3.13 µg/mL
MIC (Sta. aureus ATCC 14775; [25]): 0.39 µg/mL

CCn1cc(C(=O)O)c(=O)c2cc(F)c(N3CCNC(=O)C3)cc21 [Example 8, 1-ethyl-1,4-dihydro-6-fluoro-7-(3-oxo-1-piperazinyl)-4-oxoquinoline-3-carboxylic acid]
MIC [1, 9]: 0.78 µg/mL (≈ 2.34 µM)
MIC (E. coli ATCC 10536; [10]): 0.78 µg/mL (≈ 2.34 µM)
MIC [2, 11]: 0.39 µg/mL (≈ 1.17 µM)
MIC [3, 12]: 0.1 µg/mL (≈ 0.3 µM)
MIC (Pr. vulgaris XK Denken; Pr. vulgaris XK Denken, Gram -): 0.39 µg/mL (≈ 1.17 µM)
MIC [4, 13]: 0.78 µg/mL (≈ 2.34 µM)
MIC (Ps. aeruginosa IFO 12689; [26]): 25 µg/mL (≈ 75 µM)
MIC (Ps. aeruginosa IID 1130; [15]): 25 µg/mL (≈ 75 µM)
MIC (Ps. aeruginosa IID 1210; [16]): > 25 µg/mL
MIC [5, 17]: 12.5 µg/mL (≈ 37.5 µM)
MIC [6, 27]: 12.5 µg/mL (≈ 37.5 µM)
MIC (Ser. marcescens IID 619): 12.5 µg/mL (≈ 37.5 µM)
MIC (Ser. marcescens IID 620): 6.25 µg/mL (≈ 18.8 µM)
MIC [7]: 6.25 µg/mL (≈ 18.8 µM)
MIC (Sta. aureus ATCC 14775; [18]): 6.25 µg/mL (≈ 18.8 µM)
MIC [8, 19]: 3.13 µg/mL (≈ 9.39 µM)

CC(=O)N1CCN(c2cc3c(cc2F)c(=O)c(C(=O)O)cn3CCO)CC1 [Example 26, 1-(2-hydroxyethyl)-6-fluoro-7-(4-acetyl-1-piperazinyl)-4-oxo-1,4-dihydroquinoline-3-carboxylic acid]
MIC [1, 9]: 12.5 µg/mL (≈ 33.1 µM)
MIC (E. coli ATCC 10536; [10]): 25 µg/mL (≈ 66.2 µM)
MIC [2, 11]: > 25 µg/mL
MIC [3, 12]: 6.25 µg/mL (≈ 16.6 µM)
MIC (Pr. vulgaris XK Denken; Pr. vulgaris XK Denken, Gram -): > 25 µg/mL
MIC [4, 13]: > 25 µg/mL
MIC (Ps. aeruginosa IFO 12689; [26]): > 25 µg/mL
MIC [5, 17]: > 25 µg/mL
MIC (Sta. aureus ATCC 14775; [18]): > 25 µg/mL
MIC [8, 19]: > 25 µg/mL

CCn1cc(C(=O)O)c(=O)c2cc(F)c(N3CCN(Cc4ccc([N+](=O)[O-])cc4)CC3)cc21 [Example 27, 1-ethyl-1,4-dihydro-6-fluoro-7-[4-(p-nitrobenzyl)-1-piperazinyl]-4-oxo-3-carboxylic acid]
MIC [1, 9]: 0.1 µg/mL (≈ 0.22 µM)
MIC (E. coli ATCC 10536; [21]): 6.25 µg/mL (≈ 13.8 µM)
MIC [2, 22]: 6.25 µg/mL (≈ 13.8 µM)
MIC [3, 12]: 0.1 µg/mL (≈ 0.22 µM)
MIC (Pr. vulgaris XK Denken; Pr. vulgaris XK Denken, Gram -): 12.5 µg/mL (≈ 27.5 µM)
MIC [4, 24]: 6.25 µg/mL (≈ 13.8 µM)
MIC (Ps. aeruginosa IFO 12689; [26]): > 50 µg/mL
MIC [5, 17]: > 50 µg/mL
MIC (Shigella sonnei IID 969): 6.25 µg/mL (≈ 13.8 µM)
MIC (Sta. aureus ATCC 14775; [18]): 3.13 µg/mL (≈ 6.89 µM)
MIC [8, 19]: 1.56 µg/mL (≈ 3.43 µM)

CCn1cc(C(=O)O)c(=O)c2cc(F)c(N3CCN(C4OC(=O)c5ccccc54)CC3)cc21 (stereo not shown) [Example 28, 1-ethyl-1,4-dihydro-6-fluoro-4-oxo-7-(4-phthalidyl-1-piperazinyl)quinoline-3-carboxylic acid]
MIC [1, 9]: 0.2 µg/mL (≈ 0.443 µM)
MIC (E. coli ATCC 10536; [21]): 0.1 µg/mL (≈ 0.222 µM)
MIC [2, 11]: ≤ 0.05 µg/mL
MIC [3, 12]: ≤ 0.05 µg/mL
MIC (Pr. vulgaris XK Denken; Pr. vulgaris XK Denken, Gram -): 0.2 µg/mL (≈ 0.443 µM)
MIC [4, 13]: ≤ 0.05 µg/mL
MIC (Ps. aeruginosa IFO 12689; [26]): 1.56 µg/mL (≈ 3.46 µM)
MIC (Ps. aeruginosa IID 1130; [15]): 1.56 µg/mL (≈ 3.46 µM)
MIC (Ps. aeruginosa IID 1210; [16]): 1.56 µg/mL (≈ 3.46 µM)
MIC [5, 17]: 0.78 µg/mL (≈ 1.73 µM)
MIC [6, 27]: 0.1 µg/mL (≈ 0.222 µM)
MIC (Ser. marcescens IID 619): 0.2 µg/mL (≈ 0.443 µM)
MIC (Ser. marcescens IID 620): 0.1 µg/mL (≈ 0.222 µM)
MIC [7]: 0.1 µg/mL (≈ 0.222 µM)
MIC (Sta. aureus ATCC 14775; [18]): 3.13 µg/mL (≈ 6.93 µM)
MIC [8, 19]: 0.78 µg/mL (≈ 1.73 µM)

CCn1cc(C(=O)O)c(=O)c2cc(F)c(N3CCN(C(C)=O)CC3)cc21 [Example 29, 1-ethyl-6-fluoro-1,4-dihydro-4-oxo-7-(4-acetyl-1-piperazinyl)quinoline-3-carboxylic acid]
MIC [1, 9]: 0.2 µg/mL (≈ 0.553 µM)
MIC (E. coli ATCC 10536; [10]): 1.56 µg/mL (≈ 4.32 µM)
MIC [2, 11]: 1.56 µg/mL (≈ 4.32 µM)
MIC [3, 12]: < 0.1 µg/mL
MIC (Pr. vulgaris XK Denken; Pr. vulgaris XK Denken, Gram -): 1.56 µg/mL (≈ 4.32 µM)
MIC [4, 13]: 0.39 µg/mL (≈ 1.08 µM)
MIC (Ps. aeruginosa IFO 12689; [26]): 25 µg/mL (≈ 69.2 µM)
MIC [5, 17]: 25 µg/mL (≈ 69.2 µM)
MIC (Sta. aureus ATCC 14775; [18]): 1.56 µg/mL (≈ 4.32 µM)
MIC [8, 19]: 0.78 µg/mL (≈ 2.16 µM)
